Assay results taken from patent US20180065968A1, “NEW SUBSTITUTED TRIAZOLOPYRIMIDINES AS ANTI-MALARIAL AGENTS” (BOARD OF REGENTS OF THE UNIVERSITY OF TEXAS SYSTEM, priority 2015, published 2018).
≈ marks a conversion by molar mass, not a printed value. Where two headings read alike, the source gives them in different places.

Assays:
[1] = system: P. vivax clinical isolates; assay: Ex vivo schizont maturation assay, clinical isolates; assay type: cell-based; settings: for IC50: Plasmodium vivax, read-out: P. vivax clinical isolates IC50
Experimental: (§1) To assess comparative activity between P. falciparum and P. vivax strains compounds were tested in an ex vivo parasite assay using Plasmodium isolates from patients who visited clinics in Timika (Papua, Indonesia). Parasites in this region are resistant to standard anti-malarials such as chloroquine. P. vivax can not be cultivated in vitro so the ex vivo assay is the only method to evaluate drug sensitivity. Patients with parasitemia between 2000 and 80,000 ul^−1 were eligible for recruitment into the study. Blood was collected by venipuncture, host white blood cells were removed and packed infected red blood cells were used for the ex vivo studies. Drug susceptibility was measured as previously described (Russell et al., 2008, Antimicrobial Agents Chemother., 52, 1040-1045; Marfurt et al., 2011, Antimicrobial Agents Chemother., 55, 961-966; Marfurt et al., 2011, Antimicrobial Agents Chemother., 55, 4461-4464). Briefly two hundred μl of a 2% hematocrit blood mixture, consisting of RPMI 1640 medium plus 10% AB+ human serum (P. falciparum) or McCoy's 5A medium plus 20% AB+ human serum (P. vivax) was added to each well of pre-dosed drug plates containing serial 2-fold dilutions of the anti-malarial compound. A candle jar was used to mature parasites at 37° C. for 35-56 hrs. […] Thick blood films made from each well were stained with 5% Giemsa for 30 min and examined microscopically. The number of schizonts per 200 asexual stage parasites was determined and normalized to the control well. Data were analyzed by nonlinear regression (WinNonLn 4.1) to determine the IC50 using the inhibitory sigmoid Emax model.
(§2) Drug plate quality was assured by running schizont maturation assays (two independent experiments) with the chloroquine-resistant strain K1 and the chloroquine-sensitive strain FC27. For microscopy slide reading QC, two randomly selected drugs per isolate were read by a second microscopist. […] If necessary, discrepant results were resolved by a third reading by an expert microscopist.

[2] = system: P. falciparum FC27 lab lines; assay: Ex vivo schizont maturation assay, lab line; assay type: cell-based; settings: Plasmodium falciparum, read-out: P. falciparum FC27 lab lines IC50
Experimental: as §1, §2

[3] = system: P. falciparum Pf3D70087/N9; assay: SCID mouse P. falciparum in vivo efficacy model; design: species or system P. falciparum in NOD-scid IL-2Rγnull (NSG) mice; settings: oral, starting day 3 post infection, NSG mice engrafted with human erythrocytes
Experimental: Briefly, NOD-scid IL-2Rγnull (NSG) mice (Jackson Laboratory, USA) (23-36 g) engrafted with human erythrocytes as described were infected with 20×10^6 P. falciparum Pf3D70087/N9) generated in GlaxoSmithkline Tres Cantos (Spain) by intravenous injection. Compounds were administered orally in vehicle (saline solution for Chloroquine; 0.5% w/v sodium carboxymethylcellulose, 0.5% v/v benzyl alcohol, 0.4% v/v Tween 80 in water for triazolopyrimidine analogs). Compounds were administered at target doses ranging from 0.5 to 75 mg/kg (free base equivalent) starting on day 3 post infection. Formulation concentrations were measured to obtain the actual doses administered. Parasitemia was monitored by flow cytometry and the effective dose (ED90) was calculated as described in Jimenez-Diaz, 2009, Antimicrobial agents and chemotherapy, 53, 4533-4536.

[4] = system: P. falciparum clinical isolates; assay: Ex vivo schizont maturation assay, clinical isolates; assay type: cell-based; settings: Plasmodium falciparum, read-out: P. falciparum clinical isolates IC50
Experimental: as §1, §2

[5] = biological target: T1, pfDHODH (Plasmodium falciparum, UniProt Q08210); assay: biochemical
T1 sequence (Q08210 24-569): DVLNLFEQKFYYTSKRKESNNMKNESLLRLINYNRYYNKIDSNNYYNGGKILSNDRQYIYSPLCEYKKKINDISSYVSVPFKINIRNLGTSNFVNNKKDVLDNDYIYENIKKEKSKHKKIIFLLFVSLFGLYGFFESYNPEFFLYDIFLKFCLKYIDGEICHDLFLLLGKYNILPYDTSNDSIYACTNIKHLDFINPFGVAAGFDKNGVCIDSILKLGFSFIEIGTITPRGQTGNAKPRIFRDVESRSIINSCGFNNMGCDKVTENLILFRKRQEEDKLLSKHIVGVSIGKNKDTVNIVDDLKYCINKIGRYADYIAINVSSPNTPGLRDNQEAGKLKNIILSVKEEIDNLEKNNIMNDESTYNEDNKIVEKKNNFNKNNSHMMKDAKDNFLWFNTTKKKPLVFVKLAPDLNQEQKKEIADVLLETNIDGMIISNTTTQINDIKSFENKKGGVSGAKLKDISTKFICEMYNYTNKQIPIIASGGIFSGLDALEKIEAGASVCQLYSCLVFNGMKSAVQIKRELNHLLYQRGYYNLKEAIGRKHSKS
Experimental: (§3) The compounds of the invention were also assessed for inhibitory activity against recombinant DHODH from the indicated species. Recombinant enzymes were produced and purified from E. coli as His6 fusion proteins and purified by Ni^+2-agarose chromatography as described.
(§4) Data were collected on a Synergy H1 hybrid plate reader in 96 well plate format at 28° C., using a final assay volume of 200 μl. Rate data (v) were converted to μmoles/min using the molar extinction coefficient for DCIP. Compounds were prepared in stock solutions of DMSO. An initial 100 mM stock was generated and this was used to prepare a 3 fold dilution series in DMSO. A 1:100 dilution of DMSO stock was made into assay buffer to generate the final concentration in the assay mix.
(§5) Assay Conditions: DHODH (ET=5-10 nM), substrates (0.2 mM L-dihydroorotate and 0.02 mM CoQD), DCIP (0.12 mM) and assay buffer (100 mM HEPES, pH 8.0, 150 mM NaCl, 10% Glycerol, 0.1%Triton) at 20° C. Concentration of compounds of the invention was varied in a 3-fold dilution series (0.01-100 uM). All data were collected in triplicate.
(§6) Fitting was performed in Graph Pad Prism to determine the IC50. Reported error represents the 95% confidence interval of the fit or the standard deviation of the mean.

[6] = system: P. falciparum 3D7; assay: P. falciparum 3D7 growth inhibition assay (SYBR green); assay type: cell-based; settings: Plasmodium falciparum, 72 h incubation, 50% growth inhibition, read-out: Pf 3D7 EC50
Experimental: The ability of triazolopyrimidine derivatives according to the invention to kill P. falciparum parasites and/or to inhibit its proliferation is assayed through their ability to inhibit Plasmodium falciparum growth. The growth inhibition assay is as follows: P. falciparum 3D7 cells were grown in Gibco-Invitrogen RPMI-1640 supplemented with 2% (w/v) red blood cells (RBCs) and either 20% human type A+ plasma (Desjardins et al., 1979, Antimicrob Agents Chemother. 16, 710-718) or with Gibco-Invitrogen 0.5% Albumax I (Coteron et al., 2011, J. Med. Chem., 54, 5540-5561). Serial dilutions of compound stocks were prepared in 100% DMSO at 200× the final concentration, followed by generation of 20× stocks in media. Cell growth was monitored by the SYBR green method as described (Deng, et al., 2014. J. Med. Chem., 57, 5381-539). Parasites (0.19 ml of 0.5% parasitemia, 0.5% HCT) were plated into 96-well microtiter plates containing 10 μL compound or DMSO control (final DMSO concentration of 0.5%). Non-parasitized RBCs (0.5% HCT) were used as a control to determine background fluorescence. After 72 h of incubation parasitized RBCs were quantitated by the SYBR Green method. 2× SYBR Green I solution (20 μL) in 1× PBS was mixed with 20 μL parasites in 96-well plates, incubated for 20 min, and after which 160 μL of 1× PBS was added. Fluorescence was detected using a BD Biosciences Acurri C6 flow cytometer and events recorded within gates that encompassed all asexual growth stages of the P. falciparum intraerythrocytic life cycle. A minimum 50,000 total events were recorded per well. Background events determined from non-parasitized RBC controls were subtracted from final counts.

[7] = Aqueous kinetic solubility by nephelometry; assay type: physicochemical; settings: pH 6.5 phosphate buffer, 1% DMSO; for solubility kinetic: aqueous buffer, kinetic from dmso stock, read-out: Kinetic Solubility pH6.5
Experimental: Aqueous solubility was estimated by nephelometry. Concentrated stock solutions were prepared in DMSO and diluted into either pH 6.5 phosphate buffer or 0.01 M HCl (approximately pH 2.0), with the final DMSO concentration being 1%. Samples were then analyzed by nephelometry to determine the solubility range as described previously (Bevan, et al., 2000, Anal. Chem., 72, 1781-1787).

[8] = biological target: human DHODH (Homo sapiens, UniProt Q02127); assay: Recombinant DHODH inhibition, DCIP dye-based assay; assay type: biochemical; settings: first value of cell, read-out: h/d/m/r DHODH (h)
Experimental: as §3, §4, §5, §6

[9] = biological target: rat DHODH (Rattus norvegicus, UniProt Q63707); assay: Recombinant DHODH inhibition, DCIP dye-based assay; assay type: biochemical; settings: fourth value of cell, read-out: h/d/m/r DHODH (r)
Experimental: as §3, §4, §5, §6

[10] = biological target: dog DHODH (Canis lupus familiaris, UniProt A0A8I3MWX2); assay: Recombinant DHODH inhibition, DCIP dye-based assay; assay type: biochemical
Experimental: as §3, §4, §5, §6

[11] = biological target: mouse DHODH (Mus musculus, UniProt O35435); assay: Recombinant DHODH inhibition, DCIP dye-based assay; assay type: biochemical; settings: third value of cell, read-out: h/d/m/r DHODH (m)
Experimental: as §3, §4, §5, §6

[12] = recombinant enzyme, DCIP assay, IC50, read-out: PfDHODH
[13] = ex vivo schizont maturation, 35-56 hrs, isolates from Timika (Papua, Indonesia)
[14] = ex vivo schizont maturation, 35-56 hrs, FC27 chloroquine sensitive lab strain
[15] = dog DHODH, second value of cell, read-out: h/d/m/r DHODH (d)

Chain of dog DHODH (A0A8I3MWX2 1-406): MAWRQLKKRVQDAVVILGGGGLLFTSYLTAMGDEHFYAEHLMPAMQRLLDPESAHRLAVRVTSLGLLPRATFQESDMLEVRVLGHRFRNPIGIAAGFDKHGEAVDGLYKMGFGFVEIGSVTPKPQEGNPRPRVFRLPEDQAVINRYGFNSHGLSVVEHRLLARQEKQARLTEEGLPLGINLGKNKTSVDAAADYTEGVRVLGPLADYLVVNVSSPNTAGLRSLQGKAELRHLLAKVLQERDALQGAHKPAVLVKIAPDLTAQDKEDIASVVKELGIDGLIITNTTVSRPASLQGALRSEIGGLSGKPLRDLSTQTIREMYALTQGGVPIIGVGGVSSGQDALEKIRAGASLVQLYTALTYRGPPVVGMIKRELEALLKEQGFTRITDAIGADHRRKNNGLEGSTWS
Chain of rat DHODH (Q63707 whole entry): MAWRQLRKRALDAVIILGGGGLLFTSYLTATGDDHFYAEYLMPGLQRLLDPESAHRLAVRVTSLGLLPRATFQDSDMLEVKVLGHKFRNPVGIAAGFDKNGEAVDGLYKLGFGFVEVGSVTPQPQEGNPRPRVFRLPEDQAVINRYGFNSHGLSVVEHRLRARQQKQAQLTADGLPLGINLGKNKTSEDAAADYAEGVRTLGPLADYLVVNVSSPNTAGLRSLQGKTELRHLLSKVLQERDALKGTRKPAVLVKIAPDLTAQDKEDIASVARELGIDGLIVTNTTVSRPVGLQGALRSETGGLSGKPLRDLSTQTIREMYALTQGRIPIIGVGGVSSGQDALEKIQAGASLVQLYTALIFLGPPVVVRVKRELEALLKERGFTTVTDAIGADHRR
Chain of mouse DHODH (O35435 whole entry): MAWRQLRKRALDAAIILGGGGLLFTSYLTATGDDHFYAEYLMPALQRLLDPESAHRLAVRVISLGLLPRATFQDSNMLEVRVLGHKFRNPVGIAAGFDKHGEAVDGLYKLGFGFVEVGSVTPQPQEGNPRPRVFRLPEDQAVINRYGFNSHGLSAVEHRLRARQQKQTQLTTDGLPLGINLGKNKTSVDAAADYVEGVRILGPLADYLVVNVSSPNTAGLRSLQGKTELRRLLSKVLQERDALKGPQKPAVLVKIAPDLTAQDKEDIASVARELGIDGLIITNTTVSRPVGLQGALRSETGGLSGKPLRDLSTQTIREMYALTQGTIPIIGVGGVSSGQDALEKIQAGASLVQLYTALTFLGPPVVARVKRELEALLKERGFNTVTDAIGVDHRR
Chain of human DHODH (Q02127 whole entry): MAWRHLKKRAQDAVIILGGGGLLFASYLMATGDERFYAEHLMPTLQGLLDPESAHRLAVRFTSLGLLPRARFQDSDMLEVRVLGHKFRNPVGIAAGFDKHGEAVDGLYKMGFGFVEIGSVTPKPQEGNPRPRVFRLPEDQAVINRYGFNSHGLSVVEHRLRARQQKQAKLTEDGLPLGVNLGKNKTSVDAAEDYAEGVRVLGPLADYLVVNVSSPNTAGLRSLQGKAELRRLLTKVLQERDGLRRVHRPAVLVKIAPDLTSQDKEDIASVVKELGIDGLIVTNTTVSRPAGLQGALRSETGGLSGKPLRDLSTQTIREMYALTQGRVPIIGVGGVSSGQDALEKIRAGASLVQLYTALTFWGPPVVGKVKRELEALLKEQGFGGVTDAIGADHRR

Work on `C[C@H]1[C@H](OC(=O)CCC(=O)O)O[C@@H]2O[C@@]3(C)CC[C@H]4[C@H](C)CC[C@@H]1[C@@]24OO3` [Artesunate] yielded an IC50 [1] of 0.8 to 2.9 nM and an IC50 [2] of 3.6 to 11 nM.
`CCN(CC)CCCC(C)Nc1ccnc2cc(Cl)ccc12` (stereo not drawn) [Chloroquine] gave an ED90 [3] of 4.3 mg/kg per day, an IC50 [1] of 43 to 147 nM and an IC50 [4] of 86 to 101 nM. For the same molecule, the IC50 [2] was 23 to 32 nM.
`Cc1cc(Nc2ccc(C(F)(F)F)nc2)n2nc(C(F)(F)F)nc2n1` [Compound (3), 5-methyl-2-(trifluoromethyl)-N-(6-(trifluoromethyl)pyridin-3-yl)-[1,2,4]triazolo[1,5-a]pyrimidin-7-amine] gave an IC50 [5, 12] of 41 nM, an EC50 [6] of 35 nM and a solubility kinetic [7] of 50 µg/mL (≈ 138 µM). For the same molecule, the IC50 [8] was over 100000 nM, the IC50 [9] was 8400 nM and the IC50 [10] was 39000 nM. For the same molecule, the IC50 [11] was 33000 nM.
Work on `Cc1cc(Nc2ccc(C(F)(F)F)cn2)n2nc(C(F)(F)F)nc2n1` [Reference 2] yielded an IC50 [5, 12] of 37 nM, an EC50 [6] of 70 nM and a solubility kinetic [7] of 1.6 µg/mL (≈ 4.42 µM). For the same molecule, the IC50 [8] was over 50000 nM.
For `Cc1cc(Nc2ccc(C(F)(F)F)nc2)n2nc(C(C)(F)F)nc2n1` [Compound (1), 2-(1,1-difluoroethyl)-5-methyl-N-(6-(trifluoromethyl)pyridin-3-yl)-[1,2,4]triazolo[1,5-a]pyrimidin-7-amine], the IC50 [5, 12] was 30 nM, the ED90 [3] was 2.6 mg/kg per day and the IC50 [1, 13] was 175 nM. For the same molecule, the “comparative activity between P. falciparum and P. vivax” value ([1]; ex vivo parasite assay) was “equivalent activity on both P. falciparum and P. vivax”, the IC50 [4, 13] was 151 nM and the EC50 [6] was 11 nM. For the same molecule, the solubility kinetic [7] was over 100 µg/mL, the IC50 [2, 14] was 292 nM and the IC50 [8] was over 100000 nM. The IC50 [9] was 24000 nM, the IC50 [10, 15] was 65000 nM and the IC50 [11] was 54000 nM.
In the case of `CCc1nc(N)nc(N)c1-c1ccc(Cl)cc1` [Pyrimethamine], the ED90 [3] is reported as 0.9 mg/kg per day.
With `Cc1cc(Nc2ccc(C(F)(F)F)nc2)n2nc(C(C)(F)F)nc2n1` [Reference 1] the IC50 [5, 12] was 50 nM, the “Kinetic Solubility pH6.5” value [7] was 6.3 μg/ml and the IC50 [8] was 58000 nM. For the same molecule, the IC50 [9] was 4400 nM, the IC50 [10, 15] was 21000 nM and the IC50 [11] was 74000 nM.
`Cc1cc(Nc2ccc(S(F)(F)(F)(F)F)cc2)n2nc(C(C)(F)F)nc2n1` [Reference 4] gave an ED90 [3] of 8.1 mg/kg per day, an IC50 [1, 13] of 920 nM and an IC50 [4, 13] of 190 nM. It also gave an EC50 [6] of 5 nM, a solubility kinetic [7] of 25 µg/mL (≈ 60.2 µM) and an IC50 [2, 14] of 177 nM.
`Cc1cc(Nc2ccc(C(F)(F)F)cc2)n2nc(C(C)(F)F)nc2n1` [Reference 3] showed an IC50 [5] of 31 nM, an ED90 [3] of 26 mg/kg per day and an EC50 [6] of 8.3 nM. It also gave a solubility kinetic [7] of 50 µg/mL (≈ 140 µM), an IC50 [8] of over 100000 nM and an IC50 [9] of 7200 nM. For the same molecule, the IC50 [10, 15] was over 100000 nM and the IC50 [11] was 24000 nM.
With `Cc1nc2nc(C(C)(F)F)nn2c(Nc2ccc(C(F)(F)F)nc2)c1F` [Compound (2), 2-(1,1-difluoroethyl)-6-fluoro-5-methyl-N-(6-(trifluoromethyl)pyridin-3-yl)-[1,2,4]triazolo[1,5-a]pyrimidin-7-amine] the IC50 [5, 12] was 23 nM, the EC50 [6] was 16 nM and the solubility kinetic [7] was over 100 µg/mL. It also gave an IC50 [8] of 62000 nM, an IC50 [9] of 15700 nM and an IC50 [10, 15] of 9200 nM. The IC50 [11] was 20000 nM.
